The values below are quoted from earlier work in the CATMoS acute toxicity set (Mansouri et al. 2021).

Molecules are shown by their SMILES. Values joined by “and” are separate entries in the source; they are usually repeats but may differ in a detail not shown here. Identical values can stand only once.

The data set in a line: rat acute oral toxicity. The conditions noted are these: in vivo. The text has this:
[…]The data set underlying the modeling effort for this project was initially compiled by NICEATM and U.S. EPA’s CCTE. Briefly, LD50 data were collected from rat acute oral systemic toxicity tests, including limit tests, ranges/confidence intervals, and discrete LD50 values. The full data set included 21,200 LD50 entries for 15,688 substances. […] Data were reviewed to ensure that LD50 values with obvious errors in the extracted data such as unit conversion errors (e.g., comma and decimal separator misplacements) were either fixed or removed. After this review, 16,209 LD50 values remained. Many of the chemicals represented had multiple LD50 entries, requiring that a single representative value per Chemical Abstracts Service Registry Number (CASRN) identifier be defined to facilitate modeling efforts. Based on ATWG feedback and to define the representative LD50 as a protective value while accounting for the distribution across multiple LD50s, the median of the lowest quartile was computed using only discrete LD50 values (omitting limit test data and range and confidence interval data). A detailed summary of the data compilation is available online on the NICEATM webpage dedicated to the collaborative modeling project (NTP 2020).
[…][…] For categorical designations, limit test and range/confidence interval LD50 data were integrated wherever possible. As such, the number of chemicals with end point values/calls varies across the modeling end points (Table 3) based on whether chemicals had representative LD50 values and/or other data. If a chemical had both, the representative value was used to determine categorical calls rather than limit test data. Some data were useable only for certain end points and categories depending on the thresholds. For example, ranges that spanned multiple hazard categories were considered only for the binary (very toxic/nontoxic) end points and omitted from rendering a determination for hazard category assignment.
[…]The final data set comprising 11,992 chemicals was split into training and evaluation sets […], respectively. This process was performed semirandomly by ordering chemicals based on the five end points (categorical and continuous LD50 values) and partitioning every fourth record into the evaluation set accordingly. This approach was taken to ensure an equivalent distribution of the LD50 values and the different hazard categories between the training and the evaluation sets without supervised sampling of the chemicals based on structures (Figure 1A). The sources of the chemical structures were also kept equivalent between the two sets, with chemical structures obtained from DSSTox, being the highest quality, representing over 75% of each set (Figure 1B).
On to `O=C(O)CCC(=O)Nc1ccc(NS(=O)(=O)c2ccc([N+](=O)[O-])cc2)cc1`, for which the LD50 is 1500 mg/kg.

On to `CC(C(=O)O)c1ccc2c(c1)Cc1cccnc1O2` (stereo not drawn), for which the LD50 is 59.5 mg/kg.

Turning to `COc1ccc2c(c1)OC(C)(C)C(c1ccccc1)=C2c1ccc(OCC(O)CNC(C)C)cc1` (stereo not drawn), the LD50 was 1000 mg/kg.

Take `CCc1cccc(CC)c1N(CNC(C)=O)C(=O)CCl`: the LD50 was 3100 mg/kg.

As to `CCOc1ccc(F)cc1C(CN(C)C)C(C)CC` (stereo not drawn), the LD50 was 324 mg/kg.

Regarding `CCN(N=O)C(N)=O`, the median lethal dose (LD50) was 300 mg/kg.

On to `CC1(CCl)COC1`, for which the LD50 is 1120 mg/kg.

As to `OCCOCCN1CCN(C(c2ccccc2)c2ccc(Cl)cc2)CC1` (stereo not drawn), the LD50 was 690 mg/kg and 950 mg/kg and 840 mg/kg.

Turning to `CCCCN=C(NCCCC)C(OCC)c1ccc(Cl)cc1` (stereo not drawn), the 50% lethal dose (LD50) is 220 mg/kg.

Consider `CCCN1CCCC1=Nc1ccc(Cl)c(Cl)c1`, for which the LD50 was 2120 mg/kg.

`COc1ccccc1C=O`: the LD50 is 2500 mg/kg.

As to `[O-][n+]1c2ccccc2nc2ccccc21`, the LD50 is 6600 mg/kg.

Take `CN1C(=CC=CC2=[N+](C)c3ccccc3C2(C)C)C(C)(C)c2ccccc21`: the LD50 was 18 mg/kg.

For the compound `CCOC(=O)Cc1ccc(-c2ccccc2)cc1`, the LD50 was 385 mg/kg.

Take `COC(F)=C(C(F)(F)F)C(F)(F)F`: the LD50 was 1070 mg/kg.

For `CC=Cc1ccc(O)c(OC)c1`, the median lethal dose (LD50) is 1560 mg/kg.

As to `Cc1ccc(C)c(N)c1`, the LD50 was 1300 mg/kg.

On to `CCCCNCC(O)COc1ccc(-c2c(-c3ccccc3)c(=O)oc3cc(OC)ccc23)cc1` (stereo not drawn), for which the LD50 is 500 mg/kg.

For `Nc1c2c(nc3ccccc13)CCCC2O` (stereo not drawn), the LD50 was 176 mg/kg.

In the case of `Cc1ccc(N2C(=O)C=CC2=O)cc1N1C(=O)C=CC1=O`, the LD50 is 2400 mg/kg.

With `CCC(CO)NC(=O)C1C=C2c3cccc4c3c(cn4C)CC2N(C)C1` (stereo not drawn), the LD50 is 200 mg/kg.

As for `CC(=O)OCCN(CCC#N)c1ccccc1`, the LD50 is 2070 mg/kg.

Consider `CCOP(=O)(OCC)OC(C)=CC(=O)OC(C)c1ccccc1` (stereo not drawn), for which the LD50 is 65 mg/kg.

For `O=C1CCc2ccccc2O1`, the LD50 is 1460 mg/kg.

With `ClC1=C(Cl)C2(Cl)C3CC(Cl)(Cl)CC3C1(Cl)C2(Cl)Cl` (stereo not drawn), the LD50 was 500 mg/kg.

Take `Clc1cc(Cl)cc(Cl)c1`: the LD50 is 800 mg/kg.

For the compound `O=C(NC(=O)c1c(F)cccc1F)Nc1cc(Cl)c(Oc2ncc(C(F)(F)F)cc2Cl)c(Cl)c1`, the LD50 is 445 mg/kg.

As for `C=CC(=O)OCC(CC)CC`, the LD50 is 6490 mg/kg.

As to `CN(C)C#N`, the LD50 is 146 mg/kg.

For `COc1ccc(CCC2=NCCc3cc(OC)c(OC)cc32)cc1OC`, the LD50 was 900 mg/kg.

With `O=S(=O)(c1cccc2cnccc12)N1CCCNCC1`, the LD50 was 335 mg/kg.

For the compound `O=[N+]([O-])c1c(Cl)c([N+](=O)[O-])c2[nH]c(C(F)(F)F)nc2c1Cl`, the LD50 was 117 mg/kg.

For `O=C(Cl)c1ccc([N+](=O)[O-])cc1`, the LD50 is 5600 mg/kg.

As for `Clc1cc(Cl)c(-c2c(Cl)c(Cl)c(-c3c(Cl)cc(Cl)c(Cl)c3Cl)c(Cl)c2Cl)cc1Cl`, the 50% lethal dose (LD50) was 16000 mg/kg.

With `CC(=O)C1OC1(C)C` (stereo not drawn), the LD50 was 1610 mg/kg.

Take `C=CCI`: the LD50 was 10 mg/kg.

As to `CCCCSc1nc2ccccc2s1`, the LD50 is 1270 mg/kg.

Regarding `CCOC(=O)C=C(C)OP(=O)(OCC)OCC`, the LD50 was 22 mg/kg.

Regarding `Cc1c(I)c(=O)n(-c2ccccc2)n1C`, the LD50 is 2060 mg/kg.

`Nc1ccc(S(=O)(=O)O)c(N)c1`: the LD50 was 3480 mg/kg.

As to `CNC(=O)Oc1ccc(NC(=O)C(F)(F)Cl)c(C)c1`, the LD50 was 48.5 mg/kg.

As to `CC(=O)OCCC(C)CC(C)(C)C` (stereo not drawn), the LD50 was 4250 mg/kg.

Consider `CCOP(=S)(OCC)SC(=CC(=O)OC)C(=O)OC`, for which the median lethal dose (LD50) was 80 mg/kg.

As to `NCCNCCNCCO`, the LD50 is 4630 mg/kg.

Regarding `N#CCCC[Si](Cl)(Cl)Cl`, the LD50 is 2830 mg/kg.

As to `COP(=S)(N=C1SCCS1)OC`, the LD50 is 10 mg/kg.

Consider `CCCCCCCCOC(=O)/C=C\C(=O)OCCCCCCCC`, for which the LD50 is 14200 mg/kg.

Consider `c1ccc2sc(SN(C3CCCCC3)C3CCCCC3)nc2c1`, for which the 50% lethal dose (LD50) was 6420 mg/kg.

For the compound `CC(=O)SCc1cnc(C)c(O)c1CSC(C)=O`, the LD50 is 870 mg/kg.

Consider `c1ccc(C2(c3ccccc3)OCC(C3CCCCN3)O2)cc1` (stereo not drawn), for which the LD50 was 310 mg/kg and 280 mg/kg.

As for `CN(C)N=Nc1ccc(Br)cc1`, the 50% lethal dose (LD50) was 423 mg/kg.

With `C/N=N/Nc1ccc(Br)cc1`, the LD50 is 467 mg/kg.

As for `C[N+]1(CCC(O)(c2ccccc2)c2cccs2)CCOCC1` (stereo not drawn), the 50% lethal dose (LD50) is 2300 mg/kg.

`Cc1c(-c2ccccc2)oc2c(C(=O)O)cccc2c1=O`: the LD50 is 1660 mg/kg.

Take `CN(C)C(=S)SSC(=S)NCCNC(=S)SSC(=S)N(C)C`: the LD50 is 3000 mg/kg.

As for `Cc1cc(CC(C)CC(C)(C)C)oc(=O)c1` (stereo not drawn), the LD50 is 1480 mg/kg.

`CC(=O)CCC(=O)O`: the LD50 is 1850 mg/kg.

Consider `C#CCOc1ccccc1OC(=O)NC`, for which the LD50 was 60 mg/kg.

With `O=S1(=O)CCC(NC(=S)S)C1` (stereo not drawn), the LD50 was 1700 mg/kg.

`N#CC(Cl)(Cl)C#N`: the LD50 is 130 mg/kg.

For `CCOC(=O)C1=C(C)NC(C)=C(C(=O)OCC)C1c1ccccc1C(F)(F)F`, the LD50 was 1220 mg/kg.

`CNC(=O)ON=C1SC(=NN(C)C)SC1(C)C`: the LD50 is 1.8 mg/kg.

With `Cc1c(Cl)c(Cl)c2nc(C(F)(F)F)[nH]c2c1Cl`, the 50% lethal dose (LD50) was 18.3 mg/kg.

Regarding `CC1(COCCOCC2(C)CO2)CO1` (stereo not drawn), the median lethal dose (LD50) is 7460 mg/kg.

On to `FC(F)C(F)(F)OCC(Cn1cncn1)c1ccc(Cl)cc1Cl` (stereo not drawn), for which the LD50 is 1030 mg/kg.

On to `CC(C)(C)c1cc(C=C(C#N)C#N)cc(C(C)(C)C)c1O`, for which the LD50 is 87 mg/kg.

`CCOP(=O)(OCC)SCCC(F)=C(F)F`: the LD50 was 68 mg/kg.

Consider `O=C(CCCCC(=O)OC1CCCCC1)OC1CCCCC1`, for which the LD50 is 16000 mg/kg.

As to `NC(=O)C1(N2CCCCC2)CCN(CCCN2c3ccccc3CCc3ccccc32)CC1`, the LD50 was 1020 mg/kg.

On to `CCCCCCCCCCCC[N+](C)(C)CC(=O)[O-]`, for which the LD50 was 71 mg/kg.

In the case of `Cc1ccc(-c2ccccc2)cc1`, the 50% lethal dose (LD50) was 2570 mg/kg.

As for `CC1COC(C(Cl)CCl)O1` (stereo not drawn), the LD50 is 620 mg/kg.

In the case of `ClC(Cl)Cc1ccccc1`, the LD50 was 5500 mg/kg.

For `CCN(CC)CCOc1ccc(C2=C(c3ccccc3)CCc3cc(OC)ccc32)cc1`, the median lethal dose (LD50) was 547 mg/kg.

As for `CC(C)CCCCCCO`, the LD50 is 2980 mg/kg.

On to `Cc1cncc(CN2CCC(=C3c4ccc(Cl)cc4CCc4cccnc43)CC2)c1`, for which the 50% lethal dose (LD50) is 1000 mg/kg.

Take `ClC(Cl)(Br)CBr`: the LD50 was 205 mg/kg.

With `CN1C(C(=O)Nc2ccccn2)=C(OC(=O)C23CC4CC(CC(C4)C2)C3)c2sc(Cl)cc2S1(=O)=O`, the LD50 is 100 mg/kg.

As to `CN(N=O)C(C)(C)c1ccccc1`, the LD50 was 2100 mg/kg.

Regarding `CC[N+](CC)(CC(=O)Nc1c(C)cccc1C)Cc1ccccc1`, the LD50 was 584 mg/kg.

In the case of `Nc1nc2c(Cl)cccc2o1`, the LD50 is 500 mg/kg.

Consider `COc1ccc(-c2oc3ccc(C(=O)O)cc3c(=O)c2OC(C)C)cc1`, for which the LD50 is 1480 mg/kg.

`CCCCCCCCOC(C)=O`: the LD50 was 3000 mg/kg.

In the case of `Nc1c(Cl)cc(Cl)cc1Cl`, the LD50 is 2400 mg/kg.

As for `O=C1OC(=O)C2CCCCC12` (stereo not drawn), the LD50 was 4040 mg/kg.

In the case of `O=[N+]([O-])c1ccc(OP(=O)(CCl)c2ccccc2)cc1` (stereo not drawn), the median lethal dose (LD50) was 203 mg/kg.

With `CN(C)CCN(Cc1ccc(Cl)cc1)c1ccccn1`, the LD50 was 920 mg/kg.

Turning to `CN(C)CCC=C1c2ccccc2C(C)(C)c2ccccc21`, the LD50 is 170 mg/kg.

For orientation: LD50 means the dose at which mortality reaches 50%.
